Structures can show the parent of a compound that is named as a salt. Where two headings read alike, the source gives them in different places.
What was measured:
[1] = test system: JAK1 and JAK3 kinases; assay: Ramos B-cell line stimulated with IL-4, CD23 upregulation (FACS); format: cell-based, human
Method: One means of assaying for JAK inhibition is detection of the effect of compounds I and II on the upregulation of downstream gene products. In the Ramos/IL4 assay, B-cells are stimulated with the cytokine Interleukin-4 (IL-4) leading to the activation of the JAK/Stat pathway through phosphorylation of the JAK family kinases, JAK1 and JAK3, which in turn phosphorylate and activate the transcription factor Stat-6. […] Twenty to 24 hours post stimulation, cells are stained for upregulation of CD23 and analyzed using flow cytometry (FACS). […] An exemplary assay of this type is described in greater detail below. B-cells stimulated with cytokine Interleukin-4 (IL-4) activate the JAK/Stat pathway through phosphorylation of the JAK family kinases, JAK-1 and JAK-3, which in turn phosphorylate and activate the transcription factor Stat-6. […] To study the effect of inhibitors on the JAK family kinases, human Ramos B cells are stimulated with human IL-4. The Ramos B-cell line was acquired from [NT] No. CRL-1596). The cells were cultured in RPMI 1640 (Cellgro, MediaTech, Inc., Herndon, Va., Cat No. 10-040-CM) with 10% fetal bovine serum (FBS), heat inactivated (JRH Biosciences, Inc, Lenexa, Kans., Cat No. 12106-500M) according to ATCC propagation protocol. Cells were maintained at a density of 3.5×10^5. The day before the experiment, Ramos B-cells were diluted to 3.5×10^5 cells/mL to ensure that they were in a logarithmic growth phase. Cells were spun down and suspended in RPMI with 5% serum. 5×10^4 cells were used per point in a 96-well tissue culture plate. Cells were pre-incubated with compound or DMSO (Sigma-Aldrich, St. Louis, Mo., Cat No. D2650) vehicle control for 1 hour in a 37° C. incubator. Cells were then stimulated with IL-4 (Peprotech Inc., Rocky Hill, N.J., Cat No. 200-04) for a final concentration of 50 units/mL for 20-24 hours. Cells were then spun down and stained with anti-CD23-PE(BD Pharmingen, San Diego, Calif., Cat No. 555711) and analyzed by FACS. Detection was performed using a BD LSR I System Flow Cytometer, purchased from Becton Dickinson Biosciences of San Jose, Calif.

[2] = test system: primary human T-cells; assay: Primary human T-cell proliferation assay stimulated with IL-2 (CellTiter-Glo); format: cell-based; settings: read-out: Example 4 IC50
Excerpt: In this assay, primary human T-cells derived from peripheral blood and pre-activated through stimulation of the T-cell receptor and CD28, proliferate in culture in response to the cytokine Interleukin-2 (IL-2). This proliferative response is dependent on the activation of JAK1 and JAK3 tyrosine kinases, which phosphorylate and activate the transcription factor Stat-5. […] A reduction in cell proliferation compared to control conditions is indicative of inhibition of the JAK kinase pathway. An exemplary assay of this type is described in greater detail below.
Primary human T-cells derived from peripheral blood and pre-activated through stimulation of the T-cell receptor and CD28, proliferate in vitro in response to the cytokine Interleukin-2 (IL-2). This proliferative response is dependent on the activation of JAK-1 and JAK-3 tyrosine kinases, which phosphorylate and activate the transcription factor Stat-5.
Human primary T cells were prepared as follows. […] The lymphocytes at the serum: ficoll interface were recovered and washed twice with 5 volumes of PBS. […] The primary T-cells were stimulated for 3-4 days, then transferred to a fresh flask and maintained in RPMI with 10% FBS and 40 U/mL IL-2.
Primary T-cells were washed twice with PBS to remove the IL-2 and resuspended in Yssel's medium at 2×10^6 cells/mL. 50 μL of cell suspension containing 80 U/mL IL-2 was added to each well of a flat bottom 96 well black plate. For the unstimulated control, IL-2 was omitted from the last column on the plate. […] 50 μL of 2× compound was added per well in duplicate and the cells were allowed to proliferate for 72 hours at 37° C.
Proliferation was measured using CellTiter-Glo® Luminescent Cell Viability Assay (Promega), which determines the number of viable cells in culture based on quantitation of the ATP present, as an indicator of metabolically active cells. The substrate was thawed and allowed to come to room temperature. After mixing the Cell Titer-Glo reagent and diluent together, 100 μL was added to each well. […]

[3] = test system: JAK/Stat pathway; assay: U937 IFNγ ICAM1 FACS assay; format: cell-based, human; settings: U937 cells, IFNγ 10 ng/mL, 18-24 hours, ICAM-1 expression; read-out: Example 6 IC50
Method: U937 human monocytic cells up-regulate ICAM-1 (CD54) surface expression in response to a variety of different stimuli. Therefore, using ICAM-1 expression as readout, compound effects on different signaling pathways can be assessed in the same cell type. IFNγ up-regulates ICAM-1 through activation of the JAK/Stat pathway. In this example, the up-regulation of ICAM-1 by IFNγ was assessed.
U937 cells were grown in 10% RPMI. The cells were then plated at a concentration of 100,000 cells per 160 μL in 96 well flat bottom plates. […] Then 4 μL of test compound was transferred to 76 μL of 10% RPMI resulting in a 10× solution (100 μM test compound, 5% DMSO). For control wells, 4 μL of DMSO was diluted into 76 μL 10% RPMI.
The assay was performed in duplicate with 8 points (8 3-fold dilution concentrations from […]) and with 4 wells of DMSO only (control wells) under stimulated conditions and 4 wells of DMSO only under unstimulated conditions.
The diluted compound plate was mixed 2× using a multimek (Beckman Coulter of Brea, Calif.) and then 20 μL of the diluted compounds was transferred to the 96 well plate containing 160 μL of cells, which were then mixed again twice at low speeds. The cells and compounds were then pre-incubated for 30 minutes at 37° C. with 5% CO2.
The 10× stimulation mix was made by preparing a 100 ng/mL solution of human IFNγ in 10% RPMI. […] The cells were kept under conditions for stimulation for 18-24 hours at 37° C. with 5% CO2.
The cells were transferred to a 96 well round bottom plate for staining and then kept on ice for the duration of the staining procedure. Cells were spun down at 1000 rpm for 5 minutes at 4° C., following which the supernatant was removed. Following removal of the supernatant, 1 μL APC conjugated mouse anti-human ICAM-1 antibody was added per 100 μL FACS buffer. The cells were then incubated on ice in the dark for 30 minutes. Following incubation, 150 μL of FACS buffer was added and the cells were centrifuged at 1000 rpm for 5 minutes at 4° C., following which the supernatant was removed. […]
Both % live cells and ICAM-1 expression was analyzed. […]

[4] = target: T1, Syk (Homo sapiens, UniProt P43405); assay: Human cell based assay against Syk; settings: human cell based assays; read-out: half maximal effective concentration (EC50) against Syk
T1 construct: endogenous in cells

[5] = test system: IL-1β; assay: Other cytokine signaling (IL-1β); format: cell-based
[6] = test system: TNFα; assay: Other cytokine signaling (TNFα); format: cell-based
[7] = target: T2, JAK3 (Homo sapiens, UniProt P52333); assay: Human cell based assay against JAK3; settings: human cell based assays; read-out: half maximal effective concentration (EC50) against JAK3
T2 construct: endogenous in cells
T2 sequence (P52333 1-1124): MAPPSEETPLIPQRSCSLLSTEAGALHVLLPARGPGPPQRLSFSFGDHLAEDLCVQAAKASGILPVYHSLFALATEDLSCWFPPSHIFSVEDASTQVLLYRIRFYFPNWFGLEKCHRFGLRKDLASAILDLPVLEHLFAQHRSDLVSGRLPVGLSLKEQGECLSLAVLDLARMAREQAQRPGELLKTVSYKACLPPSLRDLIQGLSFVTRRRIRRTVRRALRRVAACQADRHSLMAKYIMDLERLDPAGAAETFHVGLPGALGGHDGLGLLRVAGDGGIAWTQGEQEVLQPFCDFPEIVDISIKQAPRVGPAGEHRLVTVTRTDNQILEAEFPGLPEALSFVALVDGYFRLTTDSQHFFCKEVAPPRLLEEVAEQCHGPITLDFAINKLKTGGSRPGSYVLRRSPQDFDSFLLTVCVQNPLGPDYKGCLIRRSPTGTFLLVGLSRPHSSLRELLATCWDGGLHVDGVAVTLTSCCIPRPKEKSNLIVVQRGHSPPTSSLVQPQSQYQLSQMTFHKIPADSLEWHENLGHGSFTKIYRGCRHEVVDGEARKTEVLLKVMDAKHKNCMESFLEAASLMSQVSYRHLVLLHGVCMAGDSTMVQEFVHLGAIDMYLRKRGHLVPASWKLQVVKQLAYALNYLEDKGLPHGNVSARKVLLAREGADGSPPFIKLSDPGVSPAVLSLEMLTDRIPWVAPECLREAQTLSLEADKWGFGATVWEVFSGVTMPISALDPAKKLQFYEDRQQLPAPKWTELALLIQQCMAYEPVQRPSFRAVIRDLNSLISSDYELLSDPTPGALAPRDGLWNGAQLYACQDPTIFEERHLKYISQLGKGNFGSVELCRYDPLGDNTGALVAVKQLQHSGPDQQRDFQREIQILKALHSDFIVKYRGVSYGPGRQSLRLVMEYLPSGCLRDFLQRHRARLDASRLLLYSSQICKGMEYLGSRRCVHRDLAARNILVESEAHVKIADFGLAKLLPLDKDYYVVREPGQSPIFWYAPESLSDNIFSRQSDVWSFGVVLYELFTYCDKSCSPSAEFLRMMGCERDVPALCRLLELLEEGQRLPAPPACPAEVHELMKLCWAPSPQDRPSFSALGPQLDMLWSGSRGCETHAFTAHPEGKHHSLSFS

[8] = test system: receptor tyrosine kinase (RTK); assay: Receptor tyrosine kinase (RTK) signaling; format: cell-based
[9] = test system: cell proliferation; assay: Cell proliferation (broad inhibition); format: cell-based

C#CCOc1ccc(Nc2nc(Nc3ccc(C)c(S(=O)(=O)NC(=O)CC)c3)ncc2F)cc1 [II, 5-fluoro-N2-(4-methyl-3-propionylaminosulfonylphenyl)-N-4-[4-(prop-2-ynyloxy)phenyl]-2,4-pyrimidinediamine]
IC50 ([1]; Homo sapiens, Ramos B cells, IL-4 50 units/mL, 20-24 hours, CD23 staining, read-out: Example 3 IC50): 9.65 µM

C#CCOc1ccc(Nc2nc(Nc3ccc(C)c(S(=O)(=O)NC(=O)CC)c3)ncc2F)cc1 [VII, 5-Fluoro-N2-[4-methyl-3-(N-propionylaminosulfonyl)phenyl]-N4-[4-(2-propynyloxy)phenyl]-2,4-pyrimidinediamine Choline Salt]
IC50 ([1]; Ramos B cells, IL-4 50 units/mL, 20-24 hours, CD23 staining, read-out: Example 3 IC50): 0.022 µM | IC50 ([2]; primary human T-cells, IL-2, 72 hours, ATP readout): 0.053 µM | IC50 [3]: 0.14 µM

C#CCOc1ccc(Nc2nc(Nc3ccc(C)c(S(N)(=O)=O)c3)ncc2F)cc1 [Compound I, N2-(3-Aminosulfonyl-4-methylphenyl)-5-fluoro-N-4-[4-(prop-2-ynyloxy)phenyl]-2,4-pyrimidinediamine]
EC50 [4]: ~0.14 µM | activity on other cytokine signaling (IL-1β) [5]: little or no activity | activity on other cytokine signaling (TNFα) [6]: little or no activity | EC50 [7]: ~0.18 µM | activity on receptor tyrosine kinase (RTK) signaling [8]: little or no activity | inhibition of cell proliferation [9]: not a broad inhibitor of cell proliferation

C#CCOc1ccc(Nc2nc(Nc3ccc(C)c(S(=O)(=O)NC(=O)CC)c3)ncc2F)cc1 [IV, 5-Fluoro-N2-[4-methyl-3-(N-propionylaminosulfonyl)phenyl]-N4-[4-(2-propynyloxy)phenyl]-2,4-pyrimidinediamine Potassium Salt]
IC50 ([1]; Homo sapiens, Ramos, read-out: Example 3 IC50, Ramos B cells, IL-4 50 units/mL, 20-24 hours, CD23 staining): 2.32 µM | IC50 ([2]; Homo sapiens, T-cell, 72 h): 5.56 µM

C#CCOc1ccc(Nc2nc(Nc3ccc(C)c(S(=O)(=O)NC(=O)CC)c3)ncc2F)cc1 [V, 5-Fluoro-N2-[4-methyl-3-(N-propionylaminosulfonyl)phenyl]-N-4-[4-(2-propynyloxy)phenyl]-2,4-pyrimidinediamine Calcium Salt]
IC50 ([1]; Ramos B cells, IL-4 50 units/mL, 20-24 hours, CD23 staining, Calcium Salt, read-out: Example 3 IC50): 0.373 µM | IC50 [3]: 25.1 µM

C#CCOc1ccc(Nc2nc(Nc3ccc(C)c(S(=O)(=O)NC(=O)CC)c3)ncc2F)cc1 [III, 5-fluoro-N2-(4-methyl-3-propionylaminosulfonylphenyl)-N-4-[4-(prop-2-ynyloxy)phenyl]-2,4-pyrimidinediamine mono-sodium salt]
IC50 ([1]; Ramos B cells, IL-4 50 units/mL, 20-24 hours, CD23 staining, mono-sodium salt, read-out: Example 3 IC50): 3.97 µM
